Where “and” joins values, the source holds several entries; their conditions need not be identical. Equal entries are not always repeated. Structures can show the parent of a compound that is named as a salt. Where two headings read alike, the source gives them in different places. Where a SMILES comes first, the peptide text is derived from it.
How the values were obtained:
HFD-fed C57BL/6J mice [1] = experiment: HFD-fed mice, TPH/sitagliptin/HSP 8 weeks: FBG, OGTT, fasting insulin, HOMA-IR; assay type: in vivo, mouse; design: unit not given here; settings: 8 weeks p.o. (Sit 12.5, TPH 80, HSP 320 mg/kg)
Experimental: (§1) To evaluate the hypoglycaemic activity of TPH, all mice were fed a high-fat diet (HFD, Research Diets, cat# D12492).
Oral glucose tolerance tests (OGTTs) were conducted following a 6-hour fasting period in mice. Blood glucose levels were assessed using a glucometer on tail vein blood samples at 0, 15, 30, 60, and 90 min after oral glucose administration with a dosage of 1.5 g/kg body weight. For insulin tolerance tests (ITTs), mice were intraperitoneal injected with insulin (0.8 U/kg body weight) after 6 h of fasting. […] The levels of active GLP-1, total GLP-1, and insulin were measured using the corresponding kits and normalized to the protein concentration (via a BCA protein assay).

[2] = test system: gut microbiota, A. muciniphila; experiment: HFD-fed mice, TPH or sitagliptin 8 weeks: gut microbiota (16S rRNA); assay type: in vivo, mouse; settings: in words, 8 weeks p.o.
From the text: To evaluate the hypoglycaemic activity of TPH, all mice were fed a high-fat diet (HFD, Research Diets, cat# D12492). […] Raw sequencing data were processed with QIIME2. In brief, the forward and reverse reads each were truncated at 200 bases. Taxonomy was assigned using the Greengenes reference (version 13.8) database. Analyses of alpha diversity (one-way ANOVA followed by Tukey’s post hoc test), beta diversity (weighted UniFrac distance followed by ANOSIM test), and bacterial taxonomic distributions were performed using MicrobiomeAnalyst.

HFD-fed C57BL/6J mice [3] = experiment: HFD-fed mice, TPH/sitagliptin/HSP 8 weeks: plasma NEFA, TG, TC, HDL-c, LDL-c; assay type: in vivo, mouse; settings: individual animals, n = 6, sheet S1U, listed as Sit
Experimental: as §1
The levels of plasma total cholesterol (TC), triacylglycerol (TG), high-density lipoprotein cholesterol (HDL-c), low-density lipoprotein cholesterol (LDL-c), nonesterified fatty acid (NEFA), tumour necrosis factor α (TNF α), and interleukin-1β (IL-1β) were determined by commercial kit (Nanjing Jiancheng Bioengineering Institute, Nanjing, China).

A. muciniphila [4] = experiment: Effect of different drugs (50 μM) on the growth of A. muciniphila; assay type: cell-based, Akkermansia muciniphila; settings: in words; drugs at 50 μM
A. muciniphila [5] = experiment: HFD-fed mice, VAMP and/or benzydamine 4 weeks: A. muciniphila abundance in faeces (qPCR); assay type: in vivo, mouse; settings: in words, 50 mg/kg three times per week for 4 weeks
DPP-IV [6] = target: T1, DPP-IV (Homo sapiens, UniProt P27487); experiment: DPP-IV inhibitory activity of peptides (DPP-IV-Glo Protease Assay Kit); assay type: biochemical; design: purchased QiZheng Biotech (Shanghai, China) IBDPP0901; settings: for DPP-IV inhibitory activity: DPP-IV-Glo Protease Assay Kit, control = 0, sheet S2F, in % (unit assumed); for IC50: read-out: IC50
Target sequence in this assay (P27487 whole entry): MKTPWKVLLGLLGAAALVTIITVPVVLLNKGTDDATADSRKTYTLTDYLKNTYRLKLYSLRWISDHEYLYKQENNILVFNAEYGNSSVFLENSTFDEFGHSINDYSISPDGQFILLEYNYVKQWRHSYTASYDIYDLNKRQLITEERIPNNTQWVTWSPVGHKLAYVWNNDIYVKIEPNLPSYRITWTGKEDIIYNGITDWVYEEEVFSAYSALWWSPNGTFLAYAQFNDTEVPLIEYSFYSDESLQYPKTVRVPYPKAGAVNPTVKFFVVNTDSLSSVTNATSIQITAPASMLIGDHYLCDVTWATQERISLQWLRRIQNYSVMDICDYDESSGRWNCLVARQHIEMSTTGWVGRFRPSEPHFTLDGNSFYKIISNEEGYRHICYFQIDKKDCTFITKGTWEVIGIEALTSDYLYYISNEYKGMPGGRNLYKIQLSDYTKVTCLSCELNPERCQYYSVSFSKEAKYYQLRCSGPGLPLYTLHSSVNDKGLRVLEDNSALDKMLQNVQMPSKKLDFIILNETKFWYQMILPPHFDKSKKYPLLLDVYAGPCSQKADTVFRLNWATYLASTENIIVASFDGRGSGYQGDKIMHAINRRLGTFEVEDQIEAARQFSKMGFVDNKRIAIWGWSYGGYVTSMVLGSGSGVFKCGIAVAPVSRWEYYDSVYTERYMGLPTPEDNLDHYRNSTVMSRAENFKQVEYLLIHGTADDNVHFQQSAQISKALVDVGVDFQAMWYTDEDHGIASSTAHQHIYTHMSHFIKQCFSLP

[7] = test system: porcine pepsase and trypsase; experiment: Simulated digestive stability of peptides (pepsase then trypsase); assay type: in vitro ADME; settings: in words; 5.0 mg/mL peptide, pepsase 5000 U/mL pH 3.0 37 °C 2 h, then trypsase 100 U/mL pH 7.0 37 °C 2 h, LC-MS
Experimental: (§2) The in vitro digestibility of the peptides was determined according to the method described by Ohanenye et al. with some modifications. Briefly, 5.0 mg/mL peptides were mixed with 5000 U/mL porcine pepsase (pH 3.0). The mixture was incubated with continuous shaking in a water bath at 37 ℃ for 2 h. Then, the mixture was adjusted to pH 7.0, and a final concentration of 100 U/mL trypsase was added, followed by continuous shaking at 37 ℃ for another 2 h. After digestion, the enzyme was inactivated, and the mixture was incubated in a water bath (100 ℃) for 20 min. Subsequently, the mixture was centrifuged at 6000 rpm for 20 min, after which the supernatants were collected for further analysis. The concentrations of peptides in the digestions and TPH were determined via AB SCIEX QTrap 6600+ (AB Sciex, Framingham, Massachusetts).

[8] = as above; assay type: in vitro ADME, porcine; settings: pig, relative to basal 100, sheet S2H; for remaining at 4 h, 5 mg/mL: pH 7, simulated digestion, after pepsase then trypsase, read-out: Peptide remaining, Trypsase; for remaining at 2 h, 5 mg/mL: porcine pepsase (simulated gastric digestion), pH 3, simulated digestion, after porcine pepsase, read-out: Peptide remaining, Pepsase
Experimental: as §2

DPP-IV [9] = target: T1, DPP-IV; experiment: Surface plasmon resonance (Biacore 8K, CM5 chip, 25 °C); assay type: binding; design: purchased QiZheng Biotech (Shanghai, China) IBDPP0901; settings: SPR, Table S3; read-out: KD values

SMILES | DPP-IV inhibitory activity (DPP-IV [6]; replicate 1) | DPP-IV inhibitory activity (DPP-IV [6]; replicate 2) | DPP-IV inhibitory activity (DPP-IV [6]; replicate 3) | IC50 (DPP-IV [6]; Table S3) [µM] | Resistance to simulated gastric pepsase and trypsase digestion [7] | remaining at 4 h, 5 mg/mL ([8]; replicate 1) [%] | remaining at 4 h, 5 mg/mL ([8]; replicate 2) [%] | remaining at 4 h, 5 mg/mL ([8]; replicate 3) [%] | remaining at 2 h, 5 mg/mL ([8]; replicate 1) [%] | remaining at 2 h, 5 mg/mL ([8]; replicate 2) [%] | remaining at 2 h, 5 mg/mL ([8]; replicate 3) [%] | Kd (DPP-IV [9]) [µM] | also measured
N[C@@H](CC(=O)N1CCn2c(nnc2C(F)(F)F)C1)Cc1cc(F)c(F)cc1F [Sitagliptin] | – | – | – | – | – | – | – | – | – | – | – | – | AUC of the OGTT (HFD-fed C57BL/6J mice [1]; mouse 1 of group): 27513; Levels of fasting insulin (HFD-fed C57BL/6J mice [1]; mouse 1 of group): 31.21; AUC of the OGTT (HFD-fed C57BL/6J mice [1]; mouse 2 of group): 22668; Levels of fasting insulin (HFD-fed C57BL/6J mice [1]; mouse 2 of group): 34.42; AUC of the OGTT (HFD-fed C57BL/6J mice [1]; mouse 3 of group): 23854.5; Levels of fasting insulin (HFD-fed C57BL/6J mice [1]; mouse 3 of group): 37.914; AUC of the OGTT (HFD-fed C57BL/6J mice [1]; mouse 4 of group): 21897; Levels of fasting insulin (HFD-fed C57BL/6J mice [1]; mouse 4 of group): 32.691; AUC of the OGTT (HFD-fed C57BL/6J mice [1]; mouse 5 of group): 22426.5; Levels of fasting insulin (HFD-fed C57BL/6J mice [1]; mouse 5 of group): 36.21; AUC of the OGTT (HFD-fed C57BL/6J mice [1]; mouse 6 of group): 19386; Levels of fasting insulin (HFD-fed C57BL/6J mice [1]; mouse 6 of group): 32.691; Abundance of A. muciniphila in the intestine [2]: no effect; Plasma HDL-c (HFD-fed C57BL/6J mice [3]): 2.289 and 2.058 and 2.182 and 2.361 and 2.149
CN(C)CCCOc1nn(Cc2ccccc2)c2ccccc12 [benzydamine, benzydamine hydrochloride] | – | – | – | – | – | – | – | – | – | – | – | – | Growth of A. muciniphila (A. muciniphila [4]): specifically inhibit the growth of A. muciniphila; Abundance of A. muciniphila in faeces (A. muciniphila [5]): reduced the abundance of A. muciniphila to an extremely low level
NC(=O)CC[C@H](NC(=O)[C@@H]1CCCN1C(=O)[C@@H](N)Cc1ccccc1)C(=O)N[C@@H](CO)C(=O)O [FPQS] (H-FPQS-OH) | 35.1258 | 29.3845 | 34.8747 | 350 | readily resistant | 85.1 | 83.4 | 87.9 | 94.6 | 92.4 | 92.7 | – | IC50 (DPP-IV [6]; source data of heatmap Fig 1J): 80 µM
CC(C)C[C@H](NC(=O)[C@@H](N)CC(C)C)C(=O)N[C@@H](Cc1ccc(O)cc1)C(=O)O [LLY] (H-Leu-Leu-Tyr-OH) | 32.8224 | 33.3933 | 36.9146 | 830 | – | 0.95 | 0.78 | 0.81 | 1.24 | 0.79 | 0.98 | 5.23 | –
CC(C)C[C@H](NC(=O)[C@H](CC(N)=O)NC(=O)[C@@H](N)Cc1ccc(O)cc1)C(=O)N1CCC[C@H]1C(=O)O [YNLP] (H-YNLP-OH) | 22.415 | 17.2115 | 22.0674 | 510 | readily resistant | 98.7 | 99 | 100 | 97.5 | 99.8 | 100 | 100 | –

— PMC12527977, “Discovery of a novel tetrapeptide as glucose homeostasis modulator with bifunctionalities of targeting DPP‐IV and microbiota” (iMeta, 2025)
